The target in assay [1] is Neuronal acetylcholine receptor subunit alpha-7 (Homo sapiens) (UniProt P36544). The experiment in a line: Agonist activity at human alpha7 nAChR expressed in xenopus oocytes assessed as potentiation of PNU-120596-induced PAM-sensitive desensitization at 30 uM by two-electrode voltage clamp electrophysiology relative to acetylcholine. It is filed as cell-based. (Two-electrode voltage clamp holds a large cell at a set potential and records current.)

Assay [2] deals with T1, Neuronal acetylcholine receptor; alpha3/beta4 (Homo sapiens) (UniProt P30926+P32297). The experiment in a line: Partial agonist activity at human alpha3beta4 nAChR expressed in xenopus oocytes assessed as induction of PAM-sensitive desensitization at 30 uM by two-electrode voltage clamp electrophysiology relative to acetylcholine. It is filed as cell-based.
Assay [3] has as its target Neuronal acetylcholine receptor subunit alpha-7 (Homo sapiens) (UniProt P36544). The experiment in a line: Agonist activity at human alpha7 nAChR expressed in xenopus oocytes assessed as induction of PAM-sensitive desensitization at 30 uM by two-electrode voltage clamp electrophysiology relative to acetylcholine. Format: cell-based.
Assay [4] shares this target. The experiment in a line: Partial agonist activity at human alpha7 nAChR expressed in xenopus oocytes assessed as induction of PAM-sensitive desensitization at 30 uM by two-electrode voltage clamp electrophysiology relative to acetylcholine. Format: cell-based.
Assay [5] shares this target. The experiment in a line: Partial agonist activity at human alpha7 nAChR expressed in xenopus oocytes assessed as induction of PAM-sensitive desensitization by measuring ratio of peak current to net charge at 30 uM by two-electrode voltage clamp electrophysiology relative to acetylcholine. Format: cell-based.
For assay [6] the target is unchanged. The experiment in a line: Partial agonist activity at human alpha7 nAChR expressed in xenopus oocytes assessed as potentiation of PNU-120596-induced PAM-sensitive desensitization at 30 uM by two-electrode voltage clamp electrophysiology relative to acetylcholine. It is filed as cell-based.
In assay [7] the target is T2, Neuronal acetylcholine receptor; alpha4/beta2 (Homo sapiens) (UniProt P17787+P43681). The experiment in a line: Partial agonist activity at alpha4beta2 nAChR (unknown origin) at 100 uM. Format: protein-complex assay.
For assay [8], the target named is T2, Neuronal acetylcholine receptor; alpha4/beta2 (Homo sapiens). The assay is described as follows: Antagonist activity at alpha4beta2 nAChR (unknown origin) at 100 uM. It is filed as protein-complex assay.
Assay [9] addresses T1, Neuronal acetylcholine receptor; alpha3/beta4 (Homo sapiens). The experiment in a line: Antagonist activity at human alpha3beta4 nAChR expressed in xenopus oocytes at 100 uM by two-electrode voltage clamp electrophysiology. It is filed as cell-based.

Calls of active or inactive are those of the source. The calls are words filed in the database; no cut-off is given here.

Neuronal acetylcholine receptor subunit alpha-7 (Homo sapiens), sequence (P36544 whole entry): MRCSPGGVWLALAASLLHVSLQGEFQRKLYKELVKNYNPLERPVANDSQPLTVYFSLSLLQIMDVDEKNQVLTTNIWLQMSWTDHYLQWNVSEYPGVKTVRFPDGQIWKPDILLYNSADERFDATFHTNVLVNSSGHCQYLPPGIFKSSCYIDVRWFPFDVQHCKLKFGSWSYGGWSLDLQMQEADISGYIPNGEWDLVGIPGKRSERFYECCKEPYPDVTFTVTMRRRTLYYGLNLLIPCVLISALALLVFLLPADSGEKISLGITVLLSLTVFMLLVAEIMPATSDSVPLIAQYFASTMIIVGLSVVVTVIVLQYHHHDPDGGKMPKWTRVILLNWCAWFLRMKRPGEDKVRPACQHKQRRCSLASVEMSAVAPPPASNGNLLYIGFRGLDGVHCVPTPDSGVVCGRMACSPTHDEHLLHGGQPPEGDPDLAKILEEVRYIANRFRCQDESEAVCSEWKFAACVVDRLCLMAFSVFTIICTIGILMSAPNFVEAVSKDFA

As for `CC[N+]1(CC)CCN(c2cccc(C#N)c2)CC1`, in assay [1], the Activity is under 10% and the fold change (FC) is 1.5. Moreover, in assay [2], the result was inactive. For the same compound, in assay [3], the fold change (FC) is 0.022.
`CC[N+]1(CC)CCN(c2cccc(O)c2)CC1`: the figures for the fold change (FC) in [4] and in [6] were 0.283 and 31.4, respectively. The Ratio in assay [5] is 0.67. In addition, in assay [6], the Activity was under 10%.
As for `CCN1CCN(c2cccc(Br)c2)CC1`, in assay [1], the Activity is under 10% and the fold change (FC) amounted to 6.9. Further, the outcome in [2] was inactive. Besides, the fold change (FC) in assay [3] was 0.
Consider `CC[N+]1(CC)CCN(c2ccc(OC)cc2)CC1`, for which, in assay [1], the Activity is under 10% and the fold change (FC) was found to be 11.6. Moreover, the result in [2] was inactive. The fold change (FC) in assay [3] stood at 0.063.
For the compound `CC[N+]1(CC)CCN(c2cccc(Br)c2)CC1`, the outcome in [7], in assay [2] and in assay [8] was inactive. In assay [1], the Activity is under 10%. Moreover, the fold change (FC) in assay [1] is 10; in assay [3] it was 0.04.
For `CC[N+]1(CC)CCN(c2ccccc2)CC1`, the Activity in [1] was under 10%. Further, the fold change (FC) in assay [1] turned out to be 1.3; in assay [3], 0.002.
For the compound `CC[N+]1(CC)CCN(c2ccc(C#N)cc2)CC1`, the fold change (FC) worked out at 0.234 in [4] and 68 in assay [6]. In addition, in assay [5], the Ratio turned out to be 0.43. In addition, the Activity in assay [6] was under 10%.
Take `CCN1CCN(c2ccc(F)cc2)CC1`: the Activity in assay [1] was under 10%. Also, the fold change (FC) in [1] and in [3] was 0 in each case. Further, the outcome in assay [2] was inactive.
As for `CC[N+]1(CC)CCN(c2ccc3ccccc3c2)CC1`, the fold change (FC) in assay [4] was found to be 0.143; in [6], 15.9. Besides, the Ratio in assay [5] came to 0.71. Moreover, in assay [6], the Activity was under 10%.
`CC[N+]1(CC)CCN(c2ccc(C(F)(F)F)cc2)CC1`: the outcome in assay [7], in [2] and in [8] was inactive. Besides, in [1], the Activity is under 10%. In addition, the values for the fold change (FC) in [1] and in assay [3] were 61.8 and 0.032, respectively.
As to `CCN1CCN(c2cccc(Cl)c2)CC1`, in [1], the Activity was under 10%. The fold change (FC) in [1] came out at 0.1; in assay [3], 0.009. The outcome in [2] was inactive.
With `CC[N+]1(CC)CCN(c2cccc(C(F)(F)F)c2)CC1`, in assay [1], the Activity is under 10% and the fold change (FC) is 3.1. Moreover, the outcome in assay [2] was inactive. The fold change (FC) in assay [3] stood at 0.
In the case of `CC[N+]1(CC)CCN(c2ccccc2C)CC1`, in [4], the fold change (FC) was 0.319. In [5], the Ratio worked out at 0.46. Further, in [6], the Activity was under 10% and the fold change (FC) was 16.4.
In the case of `CC[N+]1(CC)CCN(c2ccc(C(N)=O)cc2)CC1`, in assay [1], the Activity was under 10% and the fold change (FC) is 43.9. For the same compound, in assay [2], the outcome was inactive. Further, the fold change (FC) in assay [3] worked out at 0.065.
For `CC[N+]1(CC)CCN(c2cccc(C)c2)CC1`, in assay [1], the Activity is under 10% and the fold change (FC) amounted to 0.2. In addition, the result in assay [2] was inactive. Besides, the fold change (FC) in assay [3] was found to be 0.001.
Take `CC[N+]1(CC)CCN(c2ccc(F)cc2)CC1`: in [1], the Activity was under 10% and the fold change (FC) is 22.9. Also, the result in assay [2] was inactive. Further, the fold change (FC) in [3] stood at 0.01.
Consider `CC[N+]1(CC)CCN(c2ccc(OC)cc2OC)CC1`, for which, in [1], the Activity is under 10% and the fold change (FC) is 1.1. Moreover, the fold change (FC) in [3] amounted to 0.014.
With `CC[N+]1(CC)CCN(c2ccccc2Cl)CC1`, the values for the fold change (FC) in [4] and in assay [6] were 0.367 and 36.6, respectively. Moreover, the Ratio in assay [5] is 0.63. In assay [6], the Activity is under 10%.
Regarding `CC[N+]1(CC)CCN(c2cccc(OC)c2)CC1`, the Activity in [1] was under 10%. Moreover, the figures for the fold change (FC) in assay [1] and in assay [3] were 0.6 and 0.011, respectively. Besides, the result in assay [2] was inactive. The outcome in assay [9] was Active.
For `CC[N+]1(CC)CCN(c2ccc(Cl)cc2)CC1`, the fold change (FC) in [4] was 0.234. For the same compound, the Ratio in assay [5] amounted to 0.71. Moreover, in assay [6], the Activity is under 10% and the fold change (FC) amounted to 18.3.
Consider `CC[N+]1(CC)CCN(c2ccc(C)cc2)CC1`, for which, in assay [1], the Activity is under 10% and the fold change (FC) was 3.6. In addition, the outcome in [2] was inactive. Moreover, the fold change (FC) in assay [3] stood at 0.011.
As to `CC[N+]1(CC)CCN(c2ccc(Br)cc2)CC1`, in [1], the Activity is under 10% and the fold change (FC) is 12.3. Moreover, in [3], the fold change (FC) amounted to 0.27.
With `CC[N+]1(CC)CCN(c2cccc(C(N)=O)c2)CC1`, in [1], the Activity is under 10% and the fold change (FC) came to 50.7. In assay [2], the result was inactive. Also, the fold change (FC) in [3] stood at 0.056.
The corresponding values for `CC[N+]1(CC)CCN(c2cccc(F)c2)CC1` are under 10%, 0.2, “inactive” and 0.061.
For `CCN1CCN(c2ccc(C(F)(F)F)cc2)CC1`, in that order: under 10%, 1.4, “inactive” and 0.
As to `CC[N+]1(CC)CCC(Nc2ccccc2)CC1`, in assay [1], the Activity is under 10% and the fold change (FC) came to 5.6. Besides, in assay [2], the outcome was inactive. The fold change (FC) in [3] amounted to 0.002.
Turning to `CC[N+]1(CC)CCC(=Cc2ccccc2)CC1`, in [1], the Activity is under 10% and the fold change (FC) amounted to 9.9. In addition, in [2], the outcome was inactive. Besides, the fold change (FC) in assay [3] was 0.071.
`CC[N+]1(CC)CCN(c2cccc(Cl)c2)CC1`: in [1], the Activity is under 10% and the fold change (FC) came out at 4.2. The outcome in [2] was inactive. Also, in assay [3], the fold change (FC) worked out at 0.02.

The record behind these values is ChEMBL document CHEMBL3745606, “Dissection of N,N-diethyl-N'-phenylpiperazines as α7 nicotinic receptor silent agonists” (Bioorg Med Chem, 2016).
